# Experimental data reported in US11890291B2, “Aqueous composition with water insoluble vitamins” (Innova Agri Bio Park Private Limited, priority 2018, dated 2024).
# Legend:
# [1] = Volume of distribution test; type: in vivo, Wistar rats; settings: oral 5 mg/kg
# Method: The volume of distribution (Vd) test was done to check the ability of Vitamin D3 nanogels/nanoparticles to distribute through different body fluid compartments. Apparent volume of distribution (Vd) was calculated by dividing the amount of the nanogel/nanoparticles and the standard drug administered on the plasma concentration as shown in Table 11.
# in vivo = settings: Wistar, rat, po, 5 mg/kg
# Method: Test substance (Vitamin D3 fortified aqueous composition) and standard drug cholecalciferol (Vitamin D3) was administered by oral route at the dose of 5 mg/kg body weight to Rats as shown in Table 8.
# After oral administration of the test substance and the standard drug, 500 μL of blood sample was collected in EDTA containing tubes at different time intervals of 0, ½, 1, 2, 4, 8, 12, 24 and 48 hours.
# The plasma was separated from blood samples for bioanalysis and pharmacokinetic profiling was performed using LC-MS/MS method for the quantification of vitamin D3 in Rat plasma.
# The area under the plasma drug concentration-time curve (AUC) was calculated which reflects the actual body exposure to drug after administration of a dose of the drug.
smiles,measurement,setting,value
"C=C1CC[C@H](O)C/C1=C/C=C1\CCC[C@]2(C)[C@@H]([C@H](C)CCCC(C)C)CC[C@@H]12 [Standard vitamin D3, cholecalciferol]",Volume of distribution (Vd),[1]; 0 Hr,333.3 ± 333.3 L/kg
same,Volume of distribution (Vd),[1]; 0.5 Hr,548.8 ± 285.8 L/kg
same,Volume of distribution (Vd),[1]; 1 Hr,632.7 ± 339.6 L/kg
same,Volume of distribution (Vd),[1]; 2 Hr,465.9 ± 129.3 L/kg
same,Volume of distribution (Vd),[1]; 4 Hr,96.22 ± 25.47 L/kg
same,Volume of distribution (Vd),[1]; 8 Hr,20.25 ± 4.58 L/kg
same,Volume of distribution (Vd),[1]; 12 Hr,6.73 ± 0.89 L/kg
same,Volume of distribution (Vd),[1]; 24 Hr,4.98 ± 0.67 L/kg
same,Volume of distribution (Vd),[1]; 48 Hr,6.74 ± 0.31 L/kg
same,AUC at 0 h,in vivo,20 ng·h/mL
same,AUC at 0.5 h,in vivo,43.3 ng·h/mL
same,AUC at 1 h,in vivo,41.7 ng·h/mL
same,AUC at 2 h,in vivo,106 ng·h/mL
same,AUC at 4 h,in vivo,289 ng·h/mL
same,AUC at 8 h,in vivo,1180 ng·h/mL
same,AUC at 12 h,in vivo,3010 ng·h/mL
same,AUC at 24 h,in vivo,4060 ng·h/mL
same,AUC at 48 h,in vivo,2910 ng·h/mL
same,AUC(0-t),in vivo,11700 ng·h/mL
same,concentration at 0 h,in vivo,1.66 ± 1.66 ng/mL
same,concentration at 0.5 h,in vivo,4.16 ± 2.17 ng/mL
same,concentration at 1 h,in vivo,3.7 ± 1.98 ng/mL
same,concentration at 2 h,in vivo,13.4 ± 4.87 ng/mL
same,concentration at 4 h,in vivo,68.8 ± 22.5 ng/mL
same,concentration at 8 h,in vivo,284 ± 82 ng/mL
same,concentration at 12 h,in vivo,767 ± 92.5 ng/mL
same,concentration at 24 h,in vivo,1040 ± 123 ng/mL
same,concentration at 48 h,in vivo,744 ± 33.6 ng/mL
